Consider 23 molecules from patent US11560391B2, “Sulfonylurea compounds as inhibitors of interleukin-1 activity” (Genentech, Inc., priority 2018, dated 2023).

The experiment has as its system THP-1 ASC-GFP cells. Nature of the experiment: THP-1 ASC-GFP speck assay (NLRP3 inflammasome activation, nigericin). The class given is cell-based. Conditions: THP1-ASC-GFP; PMA-differentiated, LPS primed, 10 μM nigericin. The protocol:
THP-1 ASC-GFP cell line was purchased from Invivogen, San Diego, for infammasome activation assay. THP-1 ASC-GFP cells stably express a 37.6 kDa ASC::GFP fusion protein that enables monitoring of spec formation by microscopy after activation of NLRP3 dependent inflammasome pathway. Cells were maintained at a density of 600,000 cells/mL in growth media consisting of RPMI 1640, 2 mM L-glutamine, 25 mM HEPES and 10% heat inactivated fetal bovine serum at 37° C. and 5% CO2. Cells were passaged every 3-4 days and used for assays for up to 20 passages.
THP-1 ASC-GFP cells were collected by centrifuging cells at 800 RPM for 5 minutes. Cell culture supernatant was removed and cells were re-suspended in fresh media at density of 1×10^6 cells/mL in assay media consisting of RPMI 1640, 2 mM L-glutamine, 25 mM HEPES and 10% heat inactivated fetal bovine serum. Phorbol 12-myristate 13-acetate (PMA) (Invivogen,tlrl-pma) was added to the cell suspension at a final concentration of 500 ng/ml and mixed thoroughly. 40,000 cells were added per well of a 384 well plate and differentiated into macrophages overnight at 37° C. and 5% CO2. Cells were primed with 1 μg/mL of lipopolysaccharide (Invivogen Ultrapure lipopolysaccharide from E. coli, tlrl-3pelps) in assay media for 3 hours at 37° C. and 5% CO2. After priming, media was removed and THP-1 ASC-GFP cells were preincubated with serially diluted test compounds with starting concentration of 40 μM followed by 2-fold dilution for a 20-point curve or vehicle (DMSO) for 30 min in assay media at 37° C. and 5% CO2. Cells were then stimulated with 10 μM nigericin (Invivogen, tlrl-nig-5) for 90 min at 37° C. and 5% CO2 to activate NLRP3 dependent inflammasome pathway and spec formation. After stimulation, cells were fixed with 4.8% paraformaldehyde (Electron Microscopy Sciences #15710-S) and incubated at room temperature for 15 min. Cells were then washed 3-times with 100 μL of phosphate buffered saline and permeabilized in the presence of premeablization/block buffer for 20 min at room temperature. Cells were then washed 3-times with 100 μL phosphate buffered saline and incubated for 1 hr at room temperature in the presence of hoechst. After staining with Hoechst, cells were washed 3-times with 100 μL phosphate buffered saline and imaged for ASC spec formation.
THP-1 ASC-GFP cells were imaged in 488 and Hoechst channels. Hoechst channel was used for cell count and 488 channel was used to identify number of GFP ASC specks in imaged fields. Percentage of cells with a spec was calculated by dividing the number of GFP positive spots by total number of cells.

The IC50 is the concentration that gives 50% inhibition. Read a high IC50 as a need for much substance. As to `CN[C@@H]1COc2c(S(=O)(=O)NC(=O)Nc3c(C(C)C)nn(C(F)(F)F)c3C(C)C)cnn2C1` [Example 64a, (S)—N-((3,5-diisopropyl-1-(trifluoromethyl)-1H-pyrazol-4-yl)carbamoyl)-6-(methylamino)-6,7-dihydro-5H-pyrazolo[5,1-b][1,3]oxazine-3-sulfonamide, ammonia], the IC50 was determined as 240 nM.
Then `CC(C)c1cc(C(F)(F)F)nc(C(C)C)c1NC(=O)NS(=O)(=O)c1cnn2c1OCC(C)(C)C2` [Example 82, N-((2,4-diisopropyl-6-(trifluoromethyl)pyridin-3-yl)carbamoyl)-6,6-dimethyl-6,7-dihydro-5H-pyrazolo[5,1-b][1,3]oxazine-3-sulfonamide], with 1400 nM; and `CC(C)c1nn(CC(F)F)c(C(C)C)c1NC(=O)NS(=O)(=O)c1cnn2c1OCC(C)(C)C2` [Example 57, N-((1-(2,2-difluoroethyl)-3,5-diisopropyl-1H-pyrazol-4-yl)carbamoyl)-6,6-dimethyl-6,7-dihydro-5H-pyrazolo[5,1-b][1,3]oxazine-3-sulfonamide, ammonia], with 560 nM.
`CCn1nc(C(C)C)c(NC(=O)NS(=O)(=O)c2cnn3c2OCC(C)(C)C3)c1C(C)C` [Example 65, N-((1-ethyl-3,5-diisopropyl-1H-pyrazol-4-yl)carbamoyl)-6,6-dimethyl-6,7-dihydro-5H-pyrazolo[5,1-b][1,3]oxazine-3-sulfonamide, ammonia] registered an IC50 of 1400 nM.
The same measure for `CO[C@@H]1COc2c(S(=O)(=O)NC(=O)Nc3c(C(C)C)nn(CC(F)F)c3C(C)C)cnn2C1` [Example 62a, (S)—N-((1-(2,2-difluoroethyl)-3,5-diisopropyl-1H-pyrazol-4-yl)carbamoyl)-6-methoxy-6,7-dihydro-5H-pyrazolo[5,1-b][1,3]oxazine-3-sulfonamide, ammonia]: 640 nM.
`COc1cc(-c2nc(C(F)(F)F)cc(C(C)C)c2NC(=O)NS(=O)(=O)c2cnn3c2OCCC3)ccn1` [Example 74, Sodium N-((4-isopropyl-2′-methoxy-6-(trifluoromethyl)-[2,4′-bipyridin]-3-yl)carbamoyl)-6,7-dihydro-5H-pyrazolo[5,1-b][1,3]oxazine-3-sulfonamide]: the IC50 was 340 nM.
`COc1cc(-c2cc(C(F)(F)F)nc(C(C)C)c2NC(=O)NS(=O)(=O)c2cnn3c2OCCC3)ccn1` [Example 69, Sodium N-((2-isopropyl-2′-methoxy-6-(trifluoromethyl)-[4,4′-bipyridin]-3-yl)carbamoyl)-6,7-dihydro-5H-pyrazolo[5,1-b][1,3]oxazine-3-sulfonamide] yielded an IC50 of 520 nM.
Then `CN[C@@H]1COc2c(S(=O)(=O)NC(=O)Nc3c(C(C)C)nn(CC(F)(F)F)c3C(C)C)cnn2C1` [Example 72a, (S)—N-((3,5-diisopropyl-1-(2,2,2-trifluoroethyl)-1H-pyrazol-4-yl)carbamoyl)-6-(methylamino)-6,7-dihydro-5H-pyrazolo[5,1-b][1,3]oxazine-3-sulfonamide, ammonia], with 2500 nM; and `CO[C@@H]1COc2c(S(=O)(=O)NC(=O)Nc3c(C(C)C)nn(CC(F)(F)F)c3C(C)C)cnn2C1` [Example 59a, (S)—N-((3,5-diisopropyl-1-(2,2,2-trifluoroethyl)-1H-pyrazol-4-yl)carbamoyl)-6-methoxy-6,7-dihydro-5H-pyrazolo[5,1-b][1,3]oxazine-3-sulfonamide, ammonia], with 170 nM; and `CN[C@@H]1COc2c(S(=O)(=O)NC(=O)Nc3c(C(C)C)nn(C)c3C(C)C)cnn2C1` [Example 73a, (S)—N-((3,5-diisopropyl-1-methyl-1H-pyrazol-4-yl)carbamoyl)-6-(methylamino)-6,7-dihydro-5H-pyrazolo[5,1-b][1,3]oxazine-3-sulfonamide, ammonia], with 8700 nM.
The molecule `CO[C@@H]1COc2c(S(=O)(=O)NC(=O)Nc3c4c(nn3C(C)C)CCC4)cnn2C1` [Example 60a, Sodium (S)—N-((2-isopropyl-2,4,5,6-tetrahydrocyclopenta[c]pyrazol-3-yl)carbamoyl)-6-methoxy-6,7-dihydro-5H-pyrazolo[5,1-b][1,3]oxazine-3-sulfonamide] displayed an IC50 of 570 nM. This IC50 is about 15-fold lower than that of the molecule before.
The same measure for `CC(C)n1nc2c(c1NC(=O)NS(=O)(=O)c1cnn3c1OCC(C)(C)C3)CCC2` [Example 61, N-((2-isopropyl-2,4,5,6-tetrahydrocyclopenta[c]pyrazol-3-yl)carbamoyl)-6,6-dimethyl-6,7-dihydro-5H-pyrazolo[5,1-b][1,3]oxazine-3-sulfonamide]: 900 nM; for `CC(C)c1cc(OC2CC2)nc(C(C)C)c1NC(=O)NS(=O)(=O)c1cnn2c1OCCC2` [Example 81, Sodium N-((6-cyclopropoxy-2,4-diisopropylpyridin-3-yl)carbamoyl)-6,7-dihydro-5H-pyrazolo[5,1-b][1,3]oxazine-3-sulfonamide]: 8200 nM.
`CC(C)c1cc(OC(F)(F)F)nc(C(C)C)c1NC(=O)NS(=O)(=O)c1cnn2c1OCCC2` [Example 71, Sodium N-((2,4-diisopropyl-6-(trifluoromethoxy)pyridin-3-yl)carbamoyl)-6,7-dihydro-5H-pyrazolo[5,1-b][1,3]oxazine-3-sulfonamide]: inhibition was half-maximal at 1900 nM (IC50).
In turn, `CC(C)c1cc(C(F)(F)F)nc(C(C)C)c1NC(=O)NS(=O)(=O)c1cnn2c1OC[C@@H](N(C)C)C2` [Example 76a, (S)—N-((2,4-diisopropyl-6-(trifluoromethyl)pyridin-3-yl)carbamoyl)-6-(dimethylamino)-6,7-dihydro-5H-pyrazolo[5,1-b][1,3]oxazine-3-sulfonamide] had an IC50 of 560 nM.
`CN[C@@H]1COc2c(S(=O)(=O)NC(=O)Nc3c(C(C)C)nn(CC(F)F)c3C(C)C)cnn2C1` [Example 70a, (S)—N-((1-(2,2-difluoroethyl)-3,5-diisopropyl-1H-pyrazol-4-yl)carbamoyl)-6-(methylamino)-6,7-dihydro-5H-pyrazolo[5,1-b][1,3]oxazine-3-sulfonamide, ammonia] came in with a half-inhibitory concentration (IC50) of 4100 nM.
The same measure for `CC(C)n1nc2c(c1NC(=O)NS(=O)(=O)c1cnn3c1OC[C@@H](N(C)C)C3)CCC2` [Example 77a, (S)-6-(dimethylamino)-N-((2-isopropyl-2,4,5,6-tetrahydrocyclopenta[c]pyrazol-3-yl)carbamoyl)-6,7-dihydro-5H-pyrazolo[5,1-b][1,3]oxazine-3-sulfonamide]: 1900 nM.
Then `CC(C)c1nn(C(F)(F)F)c(C(C)C)c1NC(=O)NS(=O)(=O)c1cnn2c1OCC(C)(C)C2` [Example 79, N-((3,5-diisopropyl-1-(trifluoromethyl)-1H-pyrazol-4-yl)carbamoyl)-6,6-dimethyl-6,7-dihydro-5H-pyrazolo[5,1-b][1,3]oxazine-3-sulfonamide], with 740 nM; and `CC(C)c1nn(CC(F)(F)F)c(C(C)C)c1NC(=O)NS(=O)(=O)c1cnn2c1OCCC2` [Example 58, N-((3,5-diisopropyl-1-(2,2,2-trifluoroethyl)-1H-pyrazol-4-yl)carbamoyl)-6,7-dihydro-5H-pyrazolo[5,1-b][1,3]oxazine-3-sulfonamide, ammonia], with 200 nM; and `CC(C)c1nn(C)c(C(C)C)c1NC(=O)NS(=O)(=O)c1cnn2c1OCC(C)(C)C2` [Example 68, N-((3,5-diisopropyl-1-methyl-1H-pyrazol-4-yl)carbamoyl)-6,6-dimethyl-6,7-dihydro-5H-pyrazolo[5,1-b][1,3]oxazine-3-sulfonamide, ammonia], with 1500 nM.
The same measure for `CC(C)c1nn(CC(F)(F)F)c(C(C)C)c1NC(=O)NS(=O)(=O)c1cnn2c1OCC(C)(C)C2` [Example 75, N-((3,5-diisopropyl-1-(2,2,2-trifluoroethyl)-1H-pyrazol-4-yl)carbamoyl)-6,6-dimethyl-6,7-dihydro-5H-pyrazolo[5,1-b][1,3]oxazine-3-sulfonamide, ammonia]: 420 nM.
Regarding `CCn1nc(C(C)C)c(NC(=O)NS(=O)(=O)c2cnn3c2OC[C@@H](NC)C3)c1C(C)C` [Example 66a, (S)—N-((1-ethyl-3,5-diisopropyl-1H-pyrazol-4-yl)carbamoyl)-6-(methylamino)-6,7-dihydro-5H-pyrazolo[5,1-b][1,3]oxazine-3-sulfonamide, ammonia], the IC50 worked out at 3600 nM.
Then `CC(C)c1nn(C(F)(F)F)c(C(C)C)c1NC(=O)NS(=O)(=O)c1cnn2c1OCCC2` [Example 67, N-((3,5-diisopropyl-1-(trifluoromethyl)-1H-pyrazol-4-yl)carbamoyl)-6,7-dihydro-5H-pyrazolo[5,1-b][1,3]oxazine-3-sulfonamide, ammonia], with 170 nM.
